Results on 21 compounds are retold here after patent US11667602B2, “Compounds and their use” (AstraZeneca AB, priority 2020, dated 2023).

Structures are written as SMILES. Some results are limits rather than exact numbers.

For the test, the target named is T1, human RXFP1 (Homo sapiens, UniProt Q9HBX9).
T1 sequence (Q9HBX9 1-757): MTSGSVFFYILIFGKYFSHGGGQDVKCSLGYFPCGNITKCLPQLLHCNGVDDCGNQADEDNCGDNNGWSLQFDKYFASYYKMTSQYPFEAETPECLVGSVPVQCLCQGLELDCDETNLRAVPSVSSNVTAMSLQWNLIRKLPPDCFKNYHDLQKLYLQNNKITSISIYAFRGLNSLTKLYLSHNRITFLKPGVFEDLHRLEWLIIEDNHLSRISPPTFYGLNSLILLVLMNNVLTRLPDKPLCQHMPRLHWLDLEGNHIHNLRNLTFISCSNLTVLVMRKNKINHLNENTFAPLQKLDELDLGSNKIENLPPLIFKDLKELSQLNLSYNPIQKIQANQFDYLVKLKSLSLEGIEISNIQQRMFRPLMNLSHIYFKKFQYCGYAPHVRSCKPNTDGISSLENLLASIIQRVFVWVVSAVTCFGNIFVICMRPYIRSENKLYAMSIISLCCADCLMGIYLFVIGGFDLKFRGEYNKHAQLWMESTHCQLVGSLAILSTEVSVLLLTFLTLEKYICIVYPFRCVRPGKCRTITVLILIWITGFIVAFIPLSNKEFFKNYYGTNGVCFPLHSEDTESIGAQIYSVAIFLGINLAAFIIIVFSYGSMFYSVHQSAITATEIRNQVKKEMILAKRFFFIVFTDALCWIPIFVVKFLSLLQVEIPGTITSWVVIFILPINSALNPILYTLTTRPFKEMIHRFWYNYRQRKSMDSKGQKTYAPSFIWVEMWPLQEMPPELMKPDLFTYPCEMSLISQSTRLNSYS
Briefly: RXFP1 Hu cAMP (Test A). The note with it: RXFP1 Hu cAMP; for EC50: read-out: Test A EC50. In kind it is cell-based. On the set-up: expressed in transfected cells; host or cells: Jump-In T-REx CHO-K1 cells (ThermoFisher), induced with 10 ng/ml doxycycline for 24 h. The method in brief:
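Read-out is HTRF signal, inversely proportional to cAMP, converted to cAMP amount by standard curve. Stimulation occurred in inducible CHO-K1 cells expressing the human receptor with phosphodiesterases blocked by 0.5 mM IBMX.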

Usually EC50 stands for the concentration at which the effect is half-maximal. As to `COc1cc(F)c(C2CCC(C(=O)O)CC2)cc1C(=O)NC1C2CCC(C2)C1C(=O)Nc1cccc(S(=O)(=O)C(F)(F)F)c1` [Example 268, (1S,4s)-4-(2-Fluoro-4-methoxy-5-(((1S,2R,3S,4R)-3-((3-((trifluoromethyl)sulfonyl)phenyl)carbamoyl)bicyclo[2.2.1]heptan-2-yl)carbamoyl)phenyl)cyclohexane-1-carboxylic acid], the “Test A Sinf” value was 84% and the half-maximal effective concentration (EC50) came out at 860 nM.

Regarding `COc1cc(F)c(O[C@H]2CC[C@@](CO)(C(=O)O)CC2)cc1C(=O)NC1C2CCC(C2)C1C(=O)Nc1cccc(S(=O)(=O)C(F)(F)F)c1` (single isomer, unassigned) [Example 584, (1R,4s)-4-(2-Fluoro-4-methoxy-5-(((1S*,2S*,3R*,4R*)-3-((3-((trifluoromethyl)sulfonyl)phenyl)carbamoyl)bicyclo[2.2.1]heptan-2-yl)carbamoyl)phenoxy)-1-(hydroxymethyl)cyclohexane-1-carboxylic acid], the “Test A Sinf” value came to 106% and the concentration for a half-maximal effect (EC50) stood at 0.7 nM.

Turning to `COc1cc(F)c(O[C@H]2CC[C@@](C)(C(=O)O)CC2)cc1C(=O)NC1C2C=CC(CC2)C1C(=O)NCC1(C)CCC1` (single isomer, unassigned) [Example 544, (1R,4s)-4-(2-Fluoro-4-methoxy-5-(((1R*,2S*,3R*,4S*)-3-(((1-methylcyclobutyl)methyl)carbamoyl)bicyclo[2.2.2]oct-5-en-2-yl)carbamoyl)phenoxy)-1-methylcyclohexane-1-carboxylic acid], the EC50 was over 40000 nM. As to `COc1cc(F)c(O[C@H]2CC[C@@H](C(=O)O)CC2)cc1C(=O)N[C@@H]1[C@@H]2C[C@@H]([C@@H](O)[C@H]2O)[C@@H]1C(=O)Nc1cccc(S(=O)(=O)C(F)(F)F)c1` [Example 494], the “Test A Sinf” value was 90% and the EC50 came out at 6900 nM. For `COc1cc(F)c(O[C@H]2CC[C@@](C)(C(=O)O)CC2)cc1C(=O)NC1CCN(C(C)=O)CC1C(=O)Nc1cccc(S(=O)(=O)C(F)(F)F)c1` (single isomer, unassigned) [Example 514, (1R,4s)-4-(5-(((3R*,4S*)-1-Acetyl-3-((3-((trifluoromethyl)sulfonyl)phenyl)carbamoyl)piperidin-4-yl)carbamoyl)-2-fluoro-4-methoxyphenoxy)-1-methylcyclohexane-1-carboxylic acid], the “Test A Sinf” value amounted to 107% and the concentration giving a half-maximal response (EC50) came to 15000 nM. With `COc1cc(F)c([C@H]2CC[C@H](C(=O)O)CC2)cc1C(=O)N[C@@H]1[C@H]2CC[C@H](C2)[C@@H]1C(=O)Nc1cccc(S(=O)(=O)C(F)(F)F)c1` [Example 269, (1R,4r)-4-(2-fluoro-4-methoxy-5-(((1S,2R,3S,4R)-3-((3-((trifluoromethyl)sulfonyl)phenyl)carbamoyl)bicyclo[2.2.1]heptan-2-yl)carbamoyl)phenyl)cyclohexane-1-carboxylic acid], the “Test A Sinf” value came to 44% and the EC50 turned out to be 2900 nM. For `CCC(C)(C)NC(=O)c1ccc(Cl)cc1NC(=O)c1cc(O[C@H]2CC[C@@](C)(C(=O)O)CC2)c(C#N)cc1OC` [Example 163], in that order: 151% and 67 nM.

For the compound `COc1cc(F)c(-c2cnc(C(=O)O)nc2)cc1C(=O)N[C@H]1[C@@H](C(=O)Nc2cccc(S(=O)(=O)C(F)(F)F)c2)[C@@H]2C=C[C@H]1C2` (racemic) [Example 280], the half-maximal effective concentration (EC50) is over 40000 nM. As for `COc1cc(F)c(-c2ccccc2C(=O)O)cc1C(=O)N[C@H]1[C@@H](C(=O)Nc2cccc(S(=O)(=O)C(F)(F)F)c2)[C@@H]2C=C[C@H]1C2` (racemic) [Example 273, rac-2′-Fluoro-4′-methoxy-5′-(((1R,2R,3S,4S)-3-((3-((trifluoromethyl)sulfonyl)phenyl)carbamoyl)bicyclo[2.2.1]hept-5-en-2-yl)carbamoyl)-[1,1′-biphenyl]-2-carboxylic acid], the half-maximal effective concentration (EC50) was over 40000 nM.

For `COc1cc(F)c(-c2cnc(CCC(=O)O)cn2)cc1C(=O)N[C@@H]1[C@@H]2CC[C@@H](C2)[C@@H]1C(=O)Nc1cccc(S(=O)(=O)C(F)(F)F)c1` (racemic) [Example 324, rac-3-(5-(2-Fluoro-4-methoxy-5-(((1R,2R,3S,4S)-3-((3-((trifluoromethyl)sulfonyl)phenyl)carbamoyl)bicyclo[2.2.1]heptan-2-yl)carbamoyl)phenyl)pyrazin-2-yl)propanoic acid], the “Test A Sinf” value is 101% and the EC50 is 190 nM. In the same order, the values of `COc1cc(F)c(O[C@H]2CC[C@@](C)(C(=O)O)CC2)cc1C(=O)NC1CCCCCC1C(=O)Nc1cccc(S(=O)(=O)C(F)(F)F)c1` (single isomer, unassigned) [Example 516, (1R,4s)-4-(2-Fluoro-4-methoxy-5-(((1S*,2R*)-2-((3-((trifluoromethyl)sulfonyl)phenyl)carbamoyl)cycloheptyl)carbamoyl)phenoxy)-1-methylcyclohexane-1-carboxylic acid] are 104% and 8 nM. Turning to `COc1cc(F)c(O[C@H]2CC[C@@](C)(C(=O)O)CC2)cc1C(=O)N[C@@H]1COCC[C@@H]1C(=O)Nc1ccc(F)c(S(F)(F)(F)(F)F)c1` (racemic) [Example 349], the “Test A Sinf” value worked out at 113% and the concentration giving a half-maximal response (EC50) was found to be 1800 nM. In the case of `COc1cc(C#N)c(O[C@H]2CC[C@@](C)(C(=O)O)CC2)cc1C(=O)N[C@@H]1[C@H]2CC[C@H](C2)[C@@H]1C(=O)NCCC1CC1` [Example 133], the “Test A Sinf” value came to 100% and the concentration giving a half-maximal response (EC50) was 450 nM. In the same order, the values of `COc1cc(F)c(O[C@@H]2CC[C@H](C(=O)O)OC2)cc1C(=O)NC1[C@H]2CC[C@H](C2)[C@@H]1C(=O)Nc1cccc(S(=O)(=O)C(F)(F)F)c1` (mixture of isomers) [Example 442] are 103% and 580 nM. In the case of `COc1cc(F)c(-c2ccc(C(=O)O)cc2)cc1C(=O)N[C@H]1[C@@H](C(=O)Nc2ccc(F)c(C#N)c2)[C@@H]2C=C[C@H]1C2` (racemic) [Example 309], the “Test A Sinf” value came out at 80% and the EC50 was found to be 4000 nM.

Take `CCC(CC)CNC(=O)c1ccc(C)cc1NC(=O)c1cc(O[C@H]2CC[C@@](C)(C(=O)O)CC2)c(C#N)cc1OC` [Example 167]: the “Test A Sinf” value is on record as 147% and the 50% effective concentration (EC50) was found to be 120 nM.

As for `COc1cc(F)c(O[C@H]2CC[C@@](OC)(C(=O)O)CC2)cc1C(=O)N[C@@H]1[C@@H]2CC[C@@H](C2)[C@@H]1C(=O)Nc1cccc(S(=O)(=O)C(F)(F)F)c1` [Example 508, (1R,4r)-4-(2-Fluoro-4-methoxy-5-(((1R,2R,3S,4S)-3-((3-((trifluoromethyl)sulfonyl)phenyl)carbamoyl)bicyclo[2.2.1]heptan-2-yl)carbamoyl)phenoxy)-1-methoxycyclohexane-1-carboxylic acid], the “Test A Sinf” value was 112% and the concentration giving a half-maximal response (EC50) was determined as 13 nM.

`COc1cc(F)c(O[C@H]2CC[C@@](C)(C(=O)O)CC2)cc1C(=O)N[C@@H]1[C@H]2CC[C@H](C2)[C@@H]1C(=O)NCC1(OC)CCC1` [Example 593, (1S,4s)-4-(2-Fluoro-4-methoxy-5-(((1S,2R,3S,4R)-3-(((1-methoxycyclobutyl)methyl)carbamoyl)bicyclo[2.2.1]heptan-2-yl)carbamoyl)phenoxy)-1-methylcyclohexane-1-carboxylic acid]: the “Test A Sinf” value is recorded as 118% and the EC50 came to 520 nM. For the compound `COc1cc(F)c(OC2CCC(C)(C(=O)O)CC2)cc1C(=O)NC1C2CCC(CC2)C1C(=O)NCC1(C)CCC1` (single isomer, unassigned) [Example 543, (1R,4s)-4-(2-Fluoro-4-methoxy-5-(((2S*,3R*)-3-(((1-methylcyclobutyl)methyl)carbamoyl)bicyclo[2.2.2]octan-2-yl)carbamoyl)phenoxy)-1-methylcyclohexane-1-carboxylic acid], the “Test A Sinf” value is 88% and the concentration for a half-maximal effect (EC50) was 450 nM.

As to `COc1cc(F)c(O[C@H]2CC[C@@](C)(C(=O)O)CC2)cc1C(=O)N[C@@H]1[C@H]2OCO[C@H]2C[C@@H]1C(=O)Nc1cccc(S(=O)(=O)C(F)(F)F)c1` (racemic) [Example 395, (1R,4s)-4-(2-Fluoro-4-methoxy-5-(((3aRS,4SR,5SR,6aSR)-5-((3-((trifluoromethyl)sulfonyl)phenyl)carbamoyl)tetrahydro-4H-cyclopenta[d][1,3]dioxol-4-yl)carbamoyl)phenoxy)-1-methylcyclohexane-1-carboxylic acid], the “Test A Sinf” value is on record as 101% and the concentration giving a half-maximal response (EC50) amounted to 31 nM. As for `COc1cc(F)c(O[C@H]2CC[C@@](C)(C(=O)O)CC2)cc1C(=O)NC1CCC1C(=O)NCC(C)(C)C` (single isomer, unassigned) [Example 568, (1R,4s)-4-(2-Fluoro-4-methoxy-5-(((1S*,2R*)-2-(neopentylcarbamoyl)cyclobutyl)carbamoyl)phenoxy)-1-methylcyclohexane-1-carboxylic acid], the 50% effective concentration (EC50) was over 40000 nM.
